Test results from the NIST ThermoML archive (doi:10.1021/acs.jced.8b01075).

Assay: molar heat capacity at saturation pressure
Conditions: Crystal, Small (less than 1 g) adiabatic calorimetry

[Al+3].[Al+3].[O-2].[O-2].[O-2] [aluminum oxide (Al2O3)]
Conditions | molar heat capacity [J/K/mol]
81.94 K | 7.415
84.02 K | 7.956
87.02 K | 8.82
90.02 K | 9.678
93.01 K | 10.58
96 K | 11.53
98.99 K | 12.53
101.97 K | 13.54
104.94 K | 14.57
107.93 K | 15.61
110.92 K | 16.7
113.92 K | 17.8
116.92 K | 18.91
119.93 K | 20.06
122.94 K | 21.18
125.95 K | 22.36
128.99 K | 23.51
132.02 K | 24.71
135.04 K | 25.91
138.07 K | 27.14
141.09 K | 28.39
144.13 K | 29.63
147.16 K | 30.83
150.2 K | 32.05
153.23 K | 33.28
156.27 K | 34.49
159.31 K | 35.7
162.35 K | 36.9
165.39 K | 38.13
168.44 K | 39.32
171.48 K | 40.52
174.52 K | 41.67
177.6 K | 42.88
180.64 K | 44.01
183.68 K | 45.17
186.72 K | 46.24
189.76 K | 47.4
192.8 K | 48.56
195.84 K | 49.61
198.88 K | 50.65
201.91 K | 51.8
204.95 K | 52.77
207.97 K | 53.81
211 K | 54.84
214.02 K | 55.88
217.04 K | 56.95
220.05 K | 57.85
223.06 K | 58.88
226.07 K | 59.93
229.07 K | 60.93
232.07 K | 61.8
235.06 K | 62.67
238.05 K | 63.55
241.03 K | 64.4
244.01 K | 65.33
246.98 K | 66.26
249.94 K | 67.1
252.9 K | 67.9
255.85 K | 68.71
258.78 K | 69.49
261.71 K | 70.19
264.63 K | 71.03
267.53 K | 71.84
270.43 K | 72.53
